Experimental data taken from article PMC4222488, “Lipid droplet binding thalidomide analogs activate endoplasmic reticulum stress and suppress hepatocellular carcinoma in a chemically induced transgenic mouse model” (Lipids in Health and Disease, 2013).

Key:
[1] = Tissue distribution by fluorescent confocal microscopy of native tissue sections after i.v. injection; format: in vivo; details: mice, i.v. 20 mg/kg
Description: Mice were injected i.v. with Ac-915 or Ac-2010 (20 mg/kg) and after different time points tissues were dissected, washed in PBS, embedded in Tissue-Tek® O.C.T™ medium. After fast-freezing, the samples were stored at −20°C. Tissue sections (20 μm) were prepared by using a Leica CM1950 cryostat at −20°C. From each tissue (liver, brain, kidney, muscle, heart) three independent images were recorded as above. Images were analyzed with the Olympus Fluoview 1.6 Ver Viewer software.
To determine the tissue distribution of trifluor-amino-phtalimides, compounds were administered by i.v. injection into mice, the animals were killed at different time points and different organs were dissected. Native microscope sections were prepared and analyzed under fluorescent microscope. Because our analogs have strong inherent blue fluorescence, relative tissue distribution can be determined by using fluorescent microscopy with 405 nm laser with DAPI configuration. […] The target organs of Ac-915 seemed to be the kidney and preferentially, the liver.

Huh7 [2] = test: MTS cytotoxicity assay (CellTiter 96 AQueous); format: cell-based; details: Homo sapiens, Huh-7, 48 h exposure
Description: (§1) Hep3B and HepG2 cells were grown in mixture of Dulbecco’s Modified Eagle Medium (D-MEM) (high glucose) (Gibco BRL, Carlsbad, CA, USA) and Nutrient Mixture F-12 Ham (Sigma, St. Louis, MO, USA) containing penicillin (50 IU/ml)–streptomycin ([…]) and 10% fetal bovine serum. For cytotoxicity assays, cells were seeded at a density of 10.000 cells per well into 96-well cell culture plates and maintained in a humidified atmosphere of 95% air and 5% CO2 for 12 h, then treated with different concentrations of Ac-2010 or Ac-915. MTS (3-(4,5-dimethylthiazol-2-yl)-5-(3-carboxymethoxy-phenyl)-2-(4-sulfophenyl)-2H-tetrazolium) assay was applied to drug treated and control (0.2% DMSO) cells with CellTiter 96® AQueous Assay (Promega, Madison, WI) according to the manufacturer’s protocol.
(§2) Their cytotoxic effects on human hepatocellular carcinoma cell lines (namely: HepG2, Hep3B and Huh7) were measured by using the MTS assay. […] Both Ac-915 and Ac-2010 induced cell death of liver cancer cells at sub- or low micromolar ranges.

HepG2 [3] = test: MTS cytotoxicity assay (CellTiter 96 AQueous); format: cell-based; details: Homo sapiens, 48 h exposure
Description: as §1, §2

Hep3B [4] = test: MTS cytotoxicity assay (CellTiter 96 AQueous); format: cell-based; details: Homo sapiens, 48 h exposure
Description: as §1, §2

DEN-induced liver tumors = test: DEN-induced hepatocellular carcinoma in Matn2-/- mice; format: in vivo; details: started 4 months after DEN, assessed 8 months after DEN
Description: All mice were fed a commercial diet and water ad libitum and were housed in an animal facility under a 12 h light/dark cycle at constant temperature and humidity. For all of our studies, we employed male Matn2-deficient mice (Matn2^−/−) congenic in the 129/Sv genetic background.
For studies of liver tumor development, 15-day-old mice were treated with a single dose of DEN (Sigma-Aldrich, Budapest, Hungary) dissolved in saline at a dose of 25 mg/kg body weight by i.p. injection. 4 months after DEN injection mice were treated with either Ac-915 for 3 months (n = 15) or with Ac-2010 for 1 month (n = 10). Mice were killed 8 months after DEN administration for determination of tumor occurrence (number of tumor nodules) and liver mass index (liver weight/body weight × 100). Treatments were conducted by i.p. injection of Ac-915 at a dose of 10 mg/kg body weight three times a week or Ac-2010 at a dose of 4 mg/kg body weight three times a week.
For studies of liver tumor development, 15-day-old mice were treated with a single dose of DEN as described previously. Mice in the Ac-915 treated group (n = 15) were treated 4 months after DEN treatment for an additional 3 months. […] Mice were killed 8 months after DEN administration and the number and size of tumors and liver mass index were determined.
Liver samples were analyzed at the same time point, 8 months after DEN administration. […]

PDI [5] = molecular target: T1, PDI (Homo sapiens, UniProt P07237); test: Resonant waveguide optical biosensor binding assay; set-up: purchased Sino Biological Inc., Beijing, China; details: immobilized human recombinant protein, curve fitting
T1 sequence (P07237 18-508): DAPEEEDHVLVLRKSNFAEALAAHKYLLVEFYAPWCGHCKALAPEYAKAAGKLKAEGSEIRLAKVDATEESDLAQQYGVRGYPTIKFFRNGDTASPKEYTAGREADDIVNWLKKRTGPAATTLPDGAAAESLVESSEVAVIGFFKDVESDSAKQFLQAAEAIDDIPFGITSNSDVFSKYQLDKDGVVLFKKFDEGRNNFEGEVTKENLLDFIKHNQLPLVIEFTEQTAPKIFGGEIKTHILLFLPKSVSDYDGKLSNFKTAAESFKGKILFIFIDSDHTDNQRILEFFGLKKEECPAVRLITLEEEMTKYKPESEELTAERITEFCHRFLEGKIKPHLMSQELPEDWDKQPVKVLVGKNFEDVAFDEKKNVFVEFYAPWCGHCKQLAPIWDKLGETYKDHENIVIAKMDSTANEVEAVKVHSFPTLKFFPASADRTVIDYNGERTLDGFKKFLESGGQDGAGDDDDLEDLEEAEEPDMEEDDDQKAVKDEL
Description: (§3) Protein immobilization was accomplished by applying 10 μL of 50 μg/mL human PDI (Sino Biological Inc., Beijing, China) or 50 μg/mL human HSP70 (Sino Biological) or 100 μg/mL human HSP90 (Sino Biological) in 20 mM sodium acetate pH 5.5 into a preactivated 384-well biochemical plate (Perkin Elmer) and incubating overnight at 4°C. The microplates were subsequently washed three times with assay buffer (PBS, pH 7.4/0.005% Tween 20/3% DMSO) and, after 25 minutes thermal equilibration, a baseline reading was taken in the Enspire Multimode Plate Reader (Perkin Elmer). Finally, 15 μL assay buffer was added including different concentrations of Ac-915 or Ac-2010. The Enspire response is measured as a shift in reflected wavelength and is expressed in picometers (pm). The affinity (KD) was calculated using a curve fitting method.
Direct biomolecular interactions were determined between human recombinant and purified HSP70, HSP90, PDI proteins and Ac-915 and Ac-2010 with resonant waveguide optical biosensor technology in a biochemical binding assay. The technology is based on a microplate with resonant waveguide optical biosensors integrated into each well and a high throughput screening-compatible optical reader (Enspire system, Perkin Elmer). The biochemical interaction between the small molecule and the protein was measured as a shift in reflected wavelength and is expressed in picometers (pm). […]

PDI [6] = molecular target: T1, PDI; test: Protein disulfide isomerase assay (catalytic reduction of insulin, turbidity at 650 nm); format: biochemical; set-up: purchased Sino Biological; details: insulin reduction in presence of 1 mM DTT, 25°C
Description: The assay is based on the measurement of the catalytic reduction of insulin as described by Lundstrom and Holmgren. In this assay, PDI facilitates the reduction of insulin in the presence of DTT. The reduced insulin chains aggregate, and the turbidity is monitored spectrophotometrically at 650 nm. The assay was performed in a 96-well plate format and a volume of 30 μl in the presence of 1 mM DTT, 1 μg PDI (Sino Biological), 0.14 mM bovine pancreas insulin (Sigma), and 0.2 mM EDTA in 100 mM potassium phosphate, pH 7.0. The progress of the reaction was monitored on a 96-well plate reader (Model 680 Microplate Reader, Bio-Rad Laboratories) at 650 nm for 95 minutes at 25°C. Ac-915, Ac-2010 or DMSO control was added prior to the addition of enzyme at the concentrations indicated. The nonenzymatic reduction of insulin by DTT was recorded in a control well without PDI. IC50 values of the compounds were calculated using nonlinear regression analysis.
These values are in good correlation with the KD values determined by direct biochemical interaction measurements using waveguide optical biosensors. The activity of PDI was based on the measurement of the catalytic reduction of insulin as described by Lundstrom and Holmgren. In this assay both analogs inhibited the PDI-induced reduction of insulin in the presence of dithiothreitol. […]

Huh7 [7] = test: Real-time cytotoxicity, xCELLigence System (RT-CES); format: cell-based, human; details: Huh7, impedance monitored for 48 h
Description: (§4) Cytotoxicity and cell migration was monitored with the real-time cell electronic sensing, xCELLigence System (RT-CES, Acea-Roche). Cytotoxicity effects of Ac-2010 and Ac-915 compounds were tested on two different hepatocellular carcinoma cell lines (HepG2 and Hep3B). The RT-CES 96-well E-plate was coated with gelatin and then washed twice with PBS. Growth media (respective to cell types) were then gently dispensed into each well of the 96-well E-plate for background readings by the RT-CES system prior to addition of cell suspension at a density of 6000 cells/well. Devices containing the cell suspension were kept at 37° in a CO2 incubator for 8 h prior to treatment with different concentrations of Ac-2010 and Ac-915. Cell growth was monitored for 48 h by measurements of electrical impedance every 5 min.
(§5) Cytotoxic effects of Ac-915 and Ac-2010 compounds were also tested by the real-time cell electronic sensing, xCELLigence System (RT-CES) on two different hepatocellular carcinoma cell lines (Huh7, HepG2). This technology is based on proprietary microelectronic cell sensor arrays that are integrated in the bottom of the microtiter plates (96-well E-plate). When cells are cultured in a well, impedance is measured between sensor electrodes and the attached cells that act as insulators, which is converted into cell index number.

HepG2 [8] = test: as above; format: cell-based, human; details: for Cytotoxic effect in real time (cell index): HepG2, impedance monitored for 48 h
Description: as §4, §5

Hep3B [9] = test: ROS determination (DCFDA fluorescence, FACS); format: cell-based, human
Description: ROS generation was determined by the increase in DCFDA (2',7'-dichlorodihydrofluorescein diacetate, Sigma) fluorescence after drug stimulation. HepG2 cells were washed, resuspended in 1% bovine serum albumin in Hanks buffered saline solution (BSA-HBSS) at 10^6 cells/mL and maintained at 37°C for analysis. Cells were treated with the indicated drugs (Ac-915, Ac-2010). DCFDA was added 60 min prior to harvest, at 2 μM final concentration and intracellular ROS production was measured by using a fluorescence activated cell sorter (Beckton Dickinson) with 20,000 events/test. All the other parameters and calculations were as described before.
Toxic compounds and numerous anticancer agents interfere with chaperone and ER functions leading to cellular stress which is manifested by elevated reactive oxygen species (ROS) and dramatic decrease in the anti-oxidant, glutathione (GSH) level. To investigate whether Ac-915 and Ac-2010 exert a pro-oxidative effect as determined earlier for other amino-trifluoro-phthalimides and “redox-reactive” thalidomide analogs, we measured the presence of ROS in human hepatocellular carcinoma cells (Hep3B) Figure 4a. To reveal the correlation of depletion of glutathione and ROS production of the analogs we determined the intracellular concentrations of glutathione. […]

human HSP70 = molecular target: T2, human HSP70 (Homo sapiens, UniProt P0DMV8); test: Resonant waveguide optical biosensor binding assay; details: immobilized human recombinant protein, curve fitting
T2 construct: purchased Sino Biological
T2 sequence (P0DMV8 whole entry): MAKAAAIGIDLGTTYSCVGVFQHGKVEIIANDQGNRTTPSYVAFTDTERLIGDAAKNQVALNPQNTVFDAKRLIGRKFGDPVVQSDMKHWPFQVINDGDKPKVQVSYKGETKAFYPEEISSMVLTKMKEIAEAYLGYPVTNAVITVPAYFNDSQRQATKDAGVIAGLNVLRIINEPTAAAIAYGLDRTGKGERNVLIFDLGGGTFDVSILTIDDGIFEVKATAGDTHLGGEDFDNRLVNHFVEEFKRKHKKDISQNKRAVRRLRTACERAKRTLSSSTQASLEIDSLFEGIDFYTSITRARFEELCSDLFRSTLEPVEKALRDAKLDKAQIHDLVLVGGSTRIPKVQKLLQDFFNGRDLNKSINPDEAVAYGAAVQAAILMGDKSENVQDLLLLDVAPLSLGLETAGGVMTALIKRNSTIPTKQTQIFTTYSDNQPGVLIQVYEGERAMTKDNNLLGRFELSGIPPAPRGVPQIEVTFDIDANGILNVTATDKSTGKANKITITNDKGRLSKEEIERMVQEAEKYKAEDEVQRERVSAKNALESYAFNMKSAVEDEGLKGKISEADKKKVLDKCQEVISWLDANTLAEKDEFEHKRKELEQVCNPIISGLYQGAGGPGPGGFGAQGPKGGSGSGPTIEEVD
Description: as §3
(§6) Direct biomolecular interactions were determined between human recombinant and purified HSP70, HSP90, PDI proteins and Ac-915 and Ac-2010 with resonant waveguide optical biosensor technology in a biochemical binding assay. The technology is based on a microplate with resonant waveguide optical biosensors integrated into each well and a high throughput screening-compatible optical reader (Enspire system, Perkin Elmer). The biochemical interaction between the small molecule and the protein was measured as a shift in reflected wavelength and is expressed in picometers (pm). The binding of both analogs to each of the protein was specific and saturable with the dose response (data not shown).

human HSP90 = test: Resonant waveguide optical biosensor binding assay; details: immobilized human recombinant protein, curve fitting
Description: as §3, §6

Hep3B [10] = test: Glutathione measurement (GSH-Glo); format: cell-based, human; details: treated Hep3B cells
Description: HepG2 cells (20000 cells per well in a 96-well plate) were incubated with Ac-915 in 50 μl PBS for 2 hours in a humidified atmosphere of 95% air and 5% CO2. 50 μl aliquots of prepared 2X GSH-GloTM Reagent (GSH-GloTM Glutathione assay; Promega, Madison, WI) were added to the wells and incubation continued at room temperature for 30 minutes. 100 μl of reconstituted Luciferin Detection Reagent (Promega) was added to each well and cells were incubated for 15 minutes further. Negative controls and blank reactions were also prepared. The amount of light produced was detected by luminometer.
Toxic compounds and numerous anticancer agents interfere with chaperone and ER functions leading to cellular stress which is manifested by elevated reactive oxygen species (ROS) and dramatic decrease in the anti-oxidant, glutathione (GSH) level. To investigate whether Ac-915 and Ac-2010 exert a pro-oxidative effect as determined earlier for other amino-trifluoro-phthalimides and “redox-reactive” thalidomide analogs, we measured the presence of ROS in human hepatocellular carcinoma cells (Hep3B) Figure 4a. To reveal the correlation of depletion of glutathione and ROS production of the analogs we determined the intracellular concentrations of glutathione. To determine whether Ac-915 and Ac-2010 affect intracellular GSH levels Hep3B cells were treated with compounds and GSH levels were recorded.

[11] = Solubility (data not shown); format: physicochemical
HepG2 cell migration = test: Real-time cell migration assay, RTCA DP xCELLigence (CIM-plate 16); format: cell-based, human
[12] = Acute toxicity (data not shown); format: in vivo

Structure (SMILES)	EC50 (Huh7 [2])	EC50 (HepG2 [3])	EC50 (Hep3B [4])	Kd (PDI [5])	IC50 (PDI [6])	Cytotoxic effect in real time (cell index) (Huh7 [7])	Cytotoxic effect in real time (cell index) (HepG2 [8])	Intracellular ROS induction (Hep3B [9])	Kd (human HSP70)	Kd (human HSP90)	Intracellular GSH levels (Hep3B [10])	further results
CC(C)c1cccc(C(C)C)c1N1C(=O)c2c(F)c(F)c(F)c(N[C@@H]3C=CS(=O)(=O)C3)c2C1=O [Ac-915, 2-[2,6-bis(propane-2-yl)phenyl]-4-{[(3R)-1,1-dioxo-2,3-dihydro-thiophene-3-yl]amino}-5,6,7-trifluoro-2,3-dihydro-1H-isoindole-1,3-dione]	1.66 µM	1.21 µM	0.76 µM	~10.5 µM	~15 µM	micromolar cytotoxic effects	micromolar cytotoxic effects	induce intracellular reactive oxygen species	14 µM	11.5 µM	depleted intracellular GSH levels	Fluorescence in the liver [1]: strong fluorescent signals; Time of peak fluorescence in the liver [1]: 4 h; Fluorescence in the kidney ([1]; 2 and 4 h after administration): strong signals; Fluorescence in the brain ([1]; 1 h after administration): only a slight fluorescence increase; Fluorescence in the heart ([1]; 4 h after administration): minor fluorescence increase; Liver tumor development vs control mice (DEN-induced liver tumors; 10 mg/kg i.p. three times a week for 3 months): significantly less tumor development
CC(C)c1cccc(C(C)C)c1N1C(=O)c2c(F)c(F)c(F)c(NC(=O)NC(=O)CCl)c2C1=O [Ac-2010]	0.94 µM	1.05 µM	0.54 µM	~6 µM	~9 µM	micromolar cytotoxic effects	micromolar cytotoxic effects	induce intracellular reactive oxygen species	~16 µM	~16 µM	depleted intracellular GSH levels	Liver tumor incidence, number of tumors and liver mass index vs untreated control (DEN-induced liver tumors; 4 mg/kg i.p. three times a week for 1 month, p < 0.01): less liver tumor incidence, fewer tumors and lower liver mass index; Solubility compared with Ac-915 [11]: better solubility; Cytotoxicity at the migration-inhibiting concentration (HepG2 [8]; 250 nM, HepG2 cells): no cytotoxicity could be detected; Inhibition of cell migration (HepG2 cell migration; 250 nM): inhibited migration; Inhibition of cell migration (HepG2 cell migration; higher concentration, 2 h after administration): completely inhibited cell migration; Acute toxicity compared with Ac-915 [12]: higher acute toxicity
